In the supplement of paper PMC13380429:

Key:
Settings in all cases: 72 h
Caco-2 [1] = test: relative viability EC50 (midpoint between 100% and the lowest measured viability); higher = less toxic
Calu-3 [2] = test: as above
Vero E6 [3] = test: as above
HepG2 [4] = test: as above
U2OS [5] = test: as above
Caco-2 [6] = test: drug sensitivity score (DSS) for viability; higher = more toxic; extreme values may be limits of the assay
Calu-3 [7] = test: as above
Vero E6 [8] = test: as above
HepG2 [9] = test: as above
U2OS [10] = test: as above
Caco-2 [11] = test: cell viability relative to DMSO; higher = less toxic
Calu-3 [12] = test: as above
Vero E6 [13] = test: as above
HepG2 [14] = test: as above
U2OS [15] = test: as above

Row | Structure (SMILES) | relative viability EC50 (Caco-2 [1]) [µM] | relative viability EC50 (Calu-3 [2]) [µM] | relative viability EC50 (Vero E6 [3]) [µM] | relative viability EC50 (HepG2 [4]) [µM] | relative viability EC50 (U2OS [5]) [µM] | drug sensitivity score (Caco-2 [6]) | drug sensitivity score (Calu-3 [7]) | drug sensitivity score (Vero E6 [8]) | drug sensitivity score (HepG2 [9]) | drug sensitivity score (U2OS [10]) | cell viability (Caco-2 [11]; 1 nM) [%] | cell viability (Caco-2 [11]; 10 nM) [%] | cell viability (Caco-2 [11]; 100 nM) [%] | cell viability (Caco-2 [11]; 1000 nM) [%] | cell viability (Caco-2 [11]; 10000 nM) [%] | cell viability (Calu-3 [12]; 1 nM) [%] | cell viability (Calu-3 [12]; 10 nM) [%] | cell viability (Calu-3 [12]; 100 nM) [%] | cell viability (Calu-3 [12]; 1000 nM) [%] | cell viability (Calu-3 [12]; 10000 nM) [%] | cell viability (Vero E6 [13]; 1 nM) [%] | cell viability (Vero E6 [13]; 10 nM) [%] | cell viability (Vero E6 [13]; 100 nM) [%] | cell viability (Vero E6 [13]; 1000 nM) [%] | cell viability (Vero E6 [13]; 10000 nM) [%] | cell viability (HepG2 [14]; 1 nM) [%] | cell viability (HepG2 [14]; 10 nM) [%] | cell viability (HepG2 [14]; 100 nM) [%] | cell viability (HepG2 [14]; 1000 nM) [%] | cell viability (HepG2 [14]; 10000 nM) [%] | cell viability (U2OS [15]; 1 nM) [%] | cell viability (U2OS [15]; 10 nM) [%] | cell viability (U2OS [15]; 100 nM) [%] | cell viability (U2OS [15]; 1000 nM) [%] | cell viability (U2OS [15]; 10000 nM) [%]
1 | O=P(O)(O)C(O)(Cc1cccnc1)P(=O)(O)O [risedronate] | > 10 | > 10 | > 10 | > 10 | > 10 | 0 | 0 | 0 | 0 | 0 | 95.6 | 103 | 94.1 | 97.8 | 94.7 | 97.9 | 98.7 | 103 | 99.2 | 104 | 93.1 | 98.7 | 93 | 94.8 | 104 | 83.2 | 97.1 | 95.5 | 93.2 | 101 | 102 | 96.1 | 98 | 96.2 | 96
2 | C[C@H]1[C@H](C)CC[C@]2(C(=O)O)CC[C@]3(C)C(=CC[C@@H]4[C@@]5(C)C[C@@H](O)[C@H](O)[C@@](C)(CO)[C@@H]5CC[C@]43C)[C@H]12 [asiatic-acid] | > 10 | > 10 | > 10 | > 10 | > 10 | 0.4 | 0 | 0 | 0 | 0 | 101 | 104 | 89.2 | 94.2 | 95.6 | 98.3 | 93.2 | 106 | 90.6 | 97.5 | 106 | 111 | 106 | 93 | 105 | 83.4 | 80.2 | 78.6 | 90.2 | 88.9 | 98.1 | 105 | 95.6 | 104 | 96.9
3 | OCc1ccccc1O [salicyl-alcohol] | > 10 | > 10 | > 10 | > 10 | > 10 | 0 | 0 | 0 | 0 | 0 | 101 | 97.3 | 111 | 107 | 102 | 95.5 | 109 | 108 | 94.2 | 96.9 | 98.8 | 104 | 95.5 | 105 | 110 | 104 | 98.2 | 85.7 | 105 | 94.2 | 103 | 95.4 | 101 | 94.4 | 98.6
4 | Oc1ccc(Cl)c2c1CCC2 [chlorindanol] | > 10 | > 10 | > 10 | > 10 | > 10 | 0 | 0 | 0 | 0.3 | 0 | 115 | 93.9 | 84.6 | 105 | 99.5 | 99.8 | 118 | 107 | 109 | 96.9 | 99.5 | 100 | 103 | 96.4 | 103 | 110 | 89.5 | 97.9 | 95.2 | 84.1 | 101 | 98.8 | 97.1 | 107 | 98.9
5 | Cc1cc(OI)c(C(C)C)cc1-c1cc(C(C)C)c(OI)cc1C [thymol-iodide] | > 10 | > 10 | > 10 | > 10 | > 10 | 0.2 | 0 | 0 | 0 | 0 | 104 | 102 | 103 | 97.7 | 87.9 | 91.2 | 97 | 102 | 101 | 105 | 104 | 102 | 99.7 | 99.5 | 97.7 | 99.5 | 105 | 92.8 | 99.1 | 93.7 | 101 | 103 | 103 | 98.2 | 99.6
6 | CCN(CCO)CCCC(C)Nc1ccnc2cc(Cl)ccc12 (stereo not given) [hydroxychloroquine] | > 10 | > 10 | > 10 | > 10 | > 10 | 0.1 | 0 | 0 | 0 | 0 | 103 | 116 | 100 | 102 | 85.4 | 94.1 | 105 | 86.8 | 109 | 95.9 | 101 | 95.4 | 108 | 93.9 | 96.8 | 101 | 95.9 | 96.8 | 94.6 | 89.6 | 97.1 | 98.1 | 93.4 | 96.8 | 89.4
7 | C[C@H](c1ccc(F)cc1CCCC(=O)O)N(c1cc(F)ccc1F)S(=O)(=O)c1ccc(Cl)cc1 | > 10 | > 10 | > 10 | > 10 | > 10 | 0.1 | 0 | 0 | 0 | 0 | 101 | 97.5 | 112 | 92.6 | 89.5 | 105 | 98.9 | 99.4 | 103 | 103 | 103 | 100 | 102 | 103 | 98.8 | 93.1 | 103 | 94 | 98.8 | 93.6 | 101 | 93.5 | 97.8 | 93.1 | 96.2
8 | CNS(=O)(=O)CCc1ccc2[nH]cc(C3CCN(C)CC3)c2c1 [naratriptan] | > 10 | > 10 | > 10 | > 10 | > 10 | 0 | 0 | 0 | 0 | 0 | 97.5 | 105 | 92.7 | 100 | 105 | 114 | 94.1 | 94.7 | 97 | 107 | 98.9 | 100 | 91.9 | 99.7 | 96.7 | 102 | 98.2 | 105 | 103 | 108 | 102 | 106 | 99.2 | 99.8 | 95.9
9 | CCCCC#Cc1nc(NC)c2ncn([C@@H]3O[C@H](CO)[C@@H](O)[C@H]3O)c2n1 [HEMADO] | > 10 | > 10 | > 10 | > 10 | > 10 | 0 | 0 | 0 | 0 | 0 | 103 | 89 | 102 | 104 | 102 | 102 | 108 | 84.6 | 102 | 91.1 | 110 | 101 | 105 | 105 | 98.5 | 111 | 103 | 99.7 | 103 | 104 | 102 | 102 | 96.1 | 103 | 101
10 | O=C1NC(c2cccc([N+](=O)[O-])c2)=CCN1c1ccccc1O [icilin] | > 10 | > 10 | > 10 | > 10 | > 10 | 0 | 0 | 0 | 0 | 0 | 93.4 | 102 | 97.6 | 99.2 | 100 | 97.4 | 94.1 | 93.7 | 108 | 108 | 91.9 | 94.3 | 94 | 94.9 | 106 | 94.3 | 93.4 | 103 | 98 | 101 | 95.5 | 103 | 98.3 | 103 | 104
11 | CCOC(=O)Nc1ccc(NCc2ccc(F)cc2)cc1N [Retigabine] | > 10 | > 10 | > 10 | > 10 | > 10 | 0 | 0 | 0 | 0 | 0 | 100 | 102 | 104 | 96.8 | 106 | 91.8 | 88.5 | 98.4 | 103 | 98.3 | 89.5 | 99.1 | 96.1 | 93.5 | 111 | 97.6 | 106 | 100 | 102 | 105 | 102 | 97.4 | 104 | 97 | 98
12 | CC(C)C[C@H](NC(=O)OCc1ccccc1)C(=O)N[C@@H](C[C@@H]1CCNC1=O)C(O)S(=O)(=O)O (stereo not given in full) [GC376 sodium] | > 10 | > 10 | > 10 | > 10 | > 10 | 0 | 0 | 0 | 0 | 0 | 97.2 | 92.6 | 96.7 | 92.7 | 108 | 105 | 92.2 | 99.9 | 104 | 96.1 | 90.3 | 104 | 93.2 | 102 | 108 | 101 | 99.8 | 97 | 102 | 95.4 | 90.4 | 101 | 97.3 | 100 | 108
13 | Cc1nc2cnc3ccc(C#Cc4cccnc4)cc3c2n1-c1ccc(C(C)(C)C#N)cc1 [BAG-956] | 0.139 | 0.144 | 0.41 | 0.604 | 0.202 | 15.3 | 16.3 | 10.8 | 7.9 | 15.8 | 97.8 | 101 | 79.7 | 33.5 | 33.3 | 92.7 | 96.2 | 79 | 27.7 | 30.2 | 104 | 103 | 97.5 | 42.6 | 35.3 | 104 | 103 | 93.3 | 62.3 | 41.4 | 97.4 | 101 | 88.8 | 24.9 | 23.8
